The source made the active and inactive calls.
Assays:
Integrin alpha-L = Integrin alpha-L (Mus musculus, UniProt P24063); assay: modulators of CD8 T cell-vesicle binding, dose response, powder samples, mouse 2C CD8+ cells (AID 504565); assay type: functional
T-cell = assay: loss of vesicle association with mouse CD8+ T cells – mouse 2C CD8+ T cells, flow cytometry, dose response (AID 485284); assay type: functional
[1] = reduction of Shn3 3'UTR-driven luciferase in osteoblasts – cell-based, Clone20 osteoblasts, firefly luciferase, cherry-picked, dose response (AID 624132); assay type: functional;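 further: firefly luciferase luminescence from reporter carrying the Shn3 3'UTR in osteoblasts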
[2] = non-specific 3'UTR reporter inhibition in Clone20-Shn3RL – cell-based, Renilla luciferase, cherry-picked, counter-screen for Shn3 inhibitor project, dose response (AID 624133); assay type: functional
[3] = biological target: T1, E3 ubiquitin-protein ligase XIAP (Homo sapiens, UniProt P98170); assay: Counter Screen using XIAP-Bir3 for Chemical Antagonists of Bir1/2 domains of IAP-family anti-apoptotic proteins. [Related pubchem assays (depositor defined):AID1018, AID1449, AID1514, AID1638, AID1749, AID1750, AID488957, AID488963]
T1 sequence (P98170 whole entry): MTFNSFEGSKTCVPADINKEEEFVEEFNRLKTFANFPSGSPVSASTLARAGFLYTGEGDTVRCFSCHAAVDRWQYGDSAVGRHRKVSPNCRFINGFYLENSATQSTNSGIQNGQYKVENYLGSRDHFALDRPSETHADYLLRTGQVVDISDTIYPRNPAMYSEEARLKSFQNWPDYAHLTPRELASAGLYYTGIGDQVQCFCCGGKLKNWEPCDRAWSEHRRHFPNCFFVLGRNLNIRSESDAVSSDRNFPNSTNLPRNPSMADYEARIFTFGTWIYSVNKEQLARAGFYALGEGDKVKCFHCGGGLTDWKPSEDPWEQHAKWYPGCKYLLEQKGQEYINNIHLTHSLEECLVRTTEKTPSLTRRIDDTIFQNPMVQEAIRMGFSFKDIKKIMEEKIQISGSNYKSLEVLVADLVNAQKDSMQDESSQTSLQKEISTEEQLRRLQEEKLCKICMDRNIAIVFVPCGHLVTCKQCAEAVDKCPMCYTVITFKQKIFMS

[4] = biological target: T1, E3 ubiquitin-protein ligase XIAP; assay: small molecules displacing peptide from XIAP – biochemical, IAP family, fluorescence polarization (AID 1018); assay type: functional
[5] = biological target: Intestinal-type alkaline phosphatase (Mus musculus, UniProt P24822); assay: PubChem AID 488875; assay type: functional
Intestinal-type alkaline phosphatase (Mus musculus, UniProt P24822), sequence (P24822 whole entry): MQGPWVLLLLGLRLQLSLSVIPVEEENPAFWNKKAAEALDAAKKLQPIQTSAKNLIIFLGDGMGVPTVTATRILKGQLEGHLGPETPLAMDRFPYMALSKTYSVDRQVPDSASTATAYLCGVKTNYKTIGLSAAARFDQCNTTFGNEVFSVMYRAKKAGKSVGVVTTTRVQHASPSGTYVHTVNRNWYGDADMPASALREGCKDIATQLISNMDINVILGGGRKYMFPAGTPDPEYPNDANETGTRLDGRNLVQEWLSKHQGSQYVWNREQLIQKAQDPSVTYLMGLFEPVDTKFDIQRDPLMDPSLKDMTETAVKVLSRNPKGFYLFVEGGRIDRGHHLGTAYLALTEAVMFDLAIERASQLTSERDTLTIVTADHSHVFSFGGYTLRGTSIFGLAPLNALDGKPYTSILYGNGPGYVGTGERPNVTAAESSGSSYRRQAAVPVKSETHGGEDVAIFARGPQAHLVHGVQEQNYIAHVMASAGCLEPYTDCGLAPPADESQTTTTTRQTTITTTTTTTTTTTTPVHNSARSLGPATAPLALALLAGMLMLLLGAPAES

[6] = biological target: T2, Intestinal-type alkaline phosphatase (Homo sapiens, UniProt P09923); assay: human intestinal alkaline phosphatase activators, dose response, biochemical, luminescence, uHTS hits (AID 463120); assay type: functional
T2 sequence (P09923 whole entry): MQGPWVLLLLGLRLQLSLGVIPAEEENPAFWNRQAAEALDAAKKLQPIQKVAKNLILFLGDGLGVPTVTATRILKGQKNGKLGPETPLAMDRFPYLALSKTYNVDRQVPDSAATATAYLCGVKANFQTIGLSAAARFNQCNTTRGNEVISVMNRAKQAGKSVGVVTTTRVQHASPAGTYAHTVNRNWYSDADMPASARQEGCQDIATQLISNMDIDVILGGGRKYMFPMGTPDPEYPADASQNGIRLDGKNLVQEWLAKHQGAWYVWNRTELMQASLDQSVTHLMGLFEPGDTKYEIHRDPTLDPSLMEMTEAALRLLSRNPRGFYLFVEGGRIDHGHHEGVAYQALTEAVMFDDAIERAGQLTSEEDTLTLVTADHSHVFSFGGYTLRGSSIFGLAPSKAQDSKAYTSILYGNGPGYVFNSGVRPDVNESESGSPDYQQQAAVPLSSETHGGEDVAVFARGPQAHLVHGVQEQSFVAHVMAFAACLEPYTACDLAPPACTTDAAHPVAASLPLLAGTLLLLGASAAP

[7] = biological target: Alkaline phosphatase, placental type (Homo sapiens, UniProt P05187); assay: human placental alkaline phosphatase inhibition – biochemical, luminescence, confirmation (AID 1512); assay type: functional
Alkaline phosphatase, placental type, sequence (P05187 whole entry): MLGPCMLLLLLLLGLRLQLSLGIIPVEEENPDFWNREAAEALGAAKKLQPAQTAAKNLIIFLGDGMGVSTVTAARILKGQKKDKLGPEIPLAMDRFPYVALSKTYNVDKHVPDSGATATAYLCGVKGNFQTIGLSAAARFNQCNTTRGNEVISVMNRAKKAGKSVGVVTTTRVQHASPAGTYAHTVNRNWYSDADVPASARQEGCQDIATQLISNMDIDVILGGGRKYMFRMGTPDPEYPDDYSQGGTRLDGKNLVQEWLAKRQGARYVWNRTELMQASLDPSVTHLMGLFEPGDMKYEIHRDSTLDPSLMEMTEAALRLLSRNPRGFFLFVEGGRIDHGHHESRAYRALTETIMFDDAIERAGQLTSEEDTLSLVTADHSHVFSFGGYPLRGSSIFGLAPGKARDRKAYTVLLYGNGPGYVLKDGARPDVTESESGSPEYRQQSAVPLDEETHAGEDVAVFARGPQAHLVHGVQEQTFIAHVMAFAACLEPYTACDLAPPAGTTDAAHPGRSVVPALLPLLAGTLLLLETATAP

[8] = biological target: T2, Intestinal-type alkaline phosphatase; assay: activation of human intestinal alkaline phosphatase – biochemical, luminescent, uHTS hits, set 2, dose response (AID 488817); assay type: functional;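 further: potency of activators that raise enzyme activity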
[9] = biological target: T3, Type-1 angiotensin II receptor (Homo sapiens, UniProt P30556); assay: agonist activity at AGTR1 – cell-based, uHTS hits, selectivity assay for APJ receptor agonist project, dose response (AID 488865); assay type: functional;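 further: beta-arrestin recruitment to AT1 measured by enzyme fragment complementation luminescence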
T3 sequence (P30556 whole entry): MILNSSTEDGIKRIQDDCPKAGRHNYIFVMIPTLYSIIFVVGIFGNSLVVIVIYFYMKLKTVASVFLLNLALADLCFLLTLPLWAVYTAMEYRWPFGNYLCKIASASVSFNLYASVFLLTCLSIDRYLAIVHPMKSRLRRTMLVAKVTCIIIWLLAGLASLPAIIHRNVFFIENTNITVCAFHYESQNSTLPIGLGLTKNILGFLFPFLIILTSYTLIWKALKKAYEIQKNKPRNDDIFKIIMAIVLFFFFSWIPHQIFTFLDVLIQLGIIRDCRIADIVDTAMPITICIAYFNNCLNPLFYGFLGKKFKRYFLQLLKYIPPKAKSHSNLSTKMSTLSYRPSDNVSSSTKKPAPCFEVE

[10] = biological target: T4, Runt-related transcription factor 1/Core-binding factor subunit beta (Homo sapiens, UniProt Q01196+Q13951); assay: disruptors of Runt domain/CBFb-SMMHC interaction – biochemical, FRET, Cerulean-Runt, Venus-CBFb-SMMHC, uHTS, […] (AID 1434); assay type: protein assay
T4 sequence (Q01196 whole entry, the tested form may be a part): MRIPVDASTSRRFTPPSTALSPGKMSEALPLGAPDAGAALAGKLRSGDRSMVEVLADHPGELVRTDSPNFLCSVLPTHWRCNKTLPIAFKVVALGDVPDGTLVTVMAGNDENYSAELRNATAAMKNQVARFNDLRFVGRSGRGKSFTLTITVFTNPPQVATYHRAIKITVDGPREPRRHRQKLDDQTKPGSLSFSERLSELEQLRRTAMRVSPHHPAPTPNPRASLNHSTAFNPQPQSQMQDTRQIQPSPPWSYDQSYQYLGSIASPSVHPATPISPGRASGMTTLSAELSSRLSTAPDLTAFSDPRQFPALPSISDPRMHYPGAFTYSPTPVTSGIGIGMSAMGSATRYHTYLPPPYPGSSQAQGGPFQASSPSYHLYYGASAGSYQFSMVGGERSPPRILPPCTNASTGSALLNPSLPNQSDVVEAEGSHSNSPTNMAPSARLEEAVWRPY
T4 sequence (Q13951 whole entry, the tested form may be a part): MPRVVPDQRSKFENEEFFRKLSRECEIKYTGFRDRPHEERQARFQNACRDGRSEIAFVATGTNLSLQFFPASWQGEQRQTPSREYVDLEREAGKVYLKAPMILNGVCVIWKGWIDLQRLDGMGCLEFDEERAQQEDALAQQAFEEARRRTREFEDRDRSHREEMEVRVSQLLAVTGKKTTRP

[11] = biological target: T4, Runt-related transcription factor 1/Core-binding factor subunit beta; assay: Runt domain/CBFb-SMMHC interaction disruptors – biochemical, TR-FRET (AID 1438); assay type: protein assay
[12] = luciferase reporter signal suppression in cells – H4 neuroglioma cells, luminescence, dose response (AID 1990); assay type: functional, cell-based
[13] = test system: Streptococcus sp. 'group A'; assay: Streptococcus pyogenes SK(-)GAS viability under kanamycin – luminescence, BacTiterGlo, confirmation, counter-screen for streptokinase expression inhibitor project, dose response (AID 1900); assay type: functional, organism-based
[14] = Luminescence Cell-Based Dose Response HTS to Identify Inhibitors of 5'UTR Stem-Loop Driven Prion Protein mRNA Translation in H4 Neuroglioblastoma Cells. [Related pubchem assays: 1827 (Project Summary), 1813 (Primary HTS)]; assay type: functional
[15] = alpha-synuclein stem-loop luciferase translation blockers – H4 neuroglioma cells, luminescence, confirmation (AID 1988); assay type: functional, cell-based
Streptokinase A = biological target: T5, Streptokinase A (Streptococcus pyogenes serotype M1, UniProt P10520); assay: viability-normalized secreted streptokinase activity reduction – plasminogen activation absorbance, OD405, dose response (AID 1914); assay type: functional, Streptococcus pyogenes M1 GAS;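 further: secreted streptokinase activity via plasminogen activation per viability signal from cell pellet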
T5 sequence (P10520 whole entry): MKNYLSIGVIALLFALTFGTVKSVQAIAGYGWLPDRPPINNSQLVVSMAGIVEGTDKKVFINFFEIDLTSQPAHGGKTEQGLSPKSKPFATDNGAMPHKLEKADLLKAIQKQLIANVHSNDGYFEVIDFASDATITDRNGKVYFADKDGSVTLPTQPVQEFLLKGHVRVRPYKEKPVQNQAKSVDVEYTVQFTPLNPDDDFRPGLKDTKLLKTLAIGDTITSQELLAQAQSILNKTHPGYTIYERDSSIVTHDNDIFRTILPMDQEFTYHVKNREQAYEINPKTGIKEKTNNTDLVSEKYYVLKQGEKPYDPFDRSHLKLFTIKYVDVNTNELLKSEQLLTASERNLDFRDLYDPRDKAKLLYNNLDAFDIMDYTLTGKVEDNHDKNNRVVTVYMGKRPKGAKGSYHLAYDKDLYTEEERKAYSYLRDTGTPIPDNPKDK

[16] = Trypanosoma cruzi growth suppression in host cells – NIH3T3 host cells, beta-gal luminescence, confirmation (AID 2044); assay type: functional, cell-based;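 further: intracellular parasites grown in NIH/3T3 mouse fibroblasts as host cells; luminescent beta-galactosidase reporter signal from transgenic T. cruzi replicating inside host cells; inhibitors lower the luminescence signal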
[17] = microbe, parasite or virus in culture; assay type: functional; conditions: Mycobacterium tuberculosis
[18] = viability of PTEN-deleted HCT116 cells – cell-based, HCT116 PTEN knockout, dose response (AID 1047); assay type: functional;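 further: HCT116 colon tumor cells with PTEN knocked out; cells exposed to compound for 60 hours before readout; potency for loss of cell viability measured by luminescence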
[19] = NIH3T3 cell viability loss – ATP luminescence, mouse fibroblasts, counter-screen, dose response (AID 2010); assay type: functional, cell-based;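 further: cells exposed to compound for about 90 hours before reading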
[20] = viability of HCT116 lacking mutant beta-catenin – cell-based, human colon tumor, dose response (AID 1045); assay type: functional;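 further: HCT116 colon tumor cells with beta catenin knocked out; cells exposed to compound for 60 hours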
Streptococcus = assay: GAS UMAA2166 growth inhibition – luminescence, BacTiterGlo, counter-screen for streptokinase expression inhibitor project, dose response (AID 1915); assay type: functional, organism-based;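 further: potency for reduction of bacterial viability or growth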
[21] = biological target: Glucose-6-phosphate 1-dehydrogenase (Homo sapiens, UniProt P11413); assay: inhibition of Homo sapiens G6PD, dose series – biochemical, fluorescence, selectivity assay for P. falciparum G6PD inhibitor project, dose response (AID 504792); assay type: functional
Glucose-6-phosphate 1-dehydrogenase, sequence (P11413 whole entry): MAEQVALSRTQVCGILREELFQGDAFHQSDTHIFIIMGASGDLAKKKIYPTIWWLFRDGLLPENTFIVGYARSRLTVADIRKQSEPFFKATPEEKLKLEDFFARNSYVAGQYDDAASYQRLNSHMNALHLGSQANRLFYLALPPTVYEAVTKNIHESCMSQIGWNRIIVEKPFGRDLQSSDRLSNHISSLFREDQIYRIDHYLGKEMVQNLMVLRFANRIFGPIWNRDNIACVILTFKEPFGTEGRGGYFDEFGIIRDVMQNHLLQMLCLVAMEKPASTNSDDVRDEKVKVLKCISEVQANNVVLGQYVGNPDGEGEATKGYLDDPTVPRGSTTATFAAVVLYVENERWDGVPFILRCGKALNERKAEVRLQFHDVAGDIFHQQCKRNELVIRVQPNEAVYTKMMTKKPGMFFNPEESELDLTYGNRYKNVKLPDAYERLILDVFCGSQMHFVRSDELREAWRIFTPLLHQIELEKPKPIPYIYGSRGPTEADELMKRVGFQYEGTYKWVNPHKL

[22] = Intein inhibitors as potential Tuberculosis drugs, a cytotoxicity screen. [Related pubchem assays (depositor defined):AID2221, AID2223, AID434968, AID435010, AID449749, AID449750, AID489010]; assay type: functional
[23] = biological target: T6, Replicative DNA helicase DnaB (Mycobacterium tuberculosis, UniProt P9WMR3); assay: DnaB intein splicing inhibitors, dose response, biochemical, cell-free fluorescence (AID 449749); assay type: functional
T6 sequence (P9WMR3 whole entry): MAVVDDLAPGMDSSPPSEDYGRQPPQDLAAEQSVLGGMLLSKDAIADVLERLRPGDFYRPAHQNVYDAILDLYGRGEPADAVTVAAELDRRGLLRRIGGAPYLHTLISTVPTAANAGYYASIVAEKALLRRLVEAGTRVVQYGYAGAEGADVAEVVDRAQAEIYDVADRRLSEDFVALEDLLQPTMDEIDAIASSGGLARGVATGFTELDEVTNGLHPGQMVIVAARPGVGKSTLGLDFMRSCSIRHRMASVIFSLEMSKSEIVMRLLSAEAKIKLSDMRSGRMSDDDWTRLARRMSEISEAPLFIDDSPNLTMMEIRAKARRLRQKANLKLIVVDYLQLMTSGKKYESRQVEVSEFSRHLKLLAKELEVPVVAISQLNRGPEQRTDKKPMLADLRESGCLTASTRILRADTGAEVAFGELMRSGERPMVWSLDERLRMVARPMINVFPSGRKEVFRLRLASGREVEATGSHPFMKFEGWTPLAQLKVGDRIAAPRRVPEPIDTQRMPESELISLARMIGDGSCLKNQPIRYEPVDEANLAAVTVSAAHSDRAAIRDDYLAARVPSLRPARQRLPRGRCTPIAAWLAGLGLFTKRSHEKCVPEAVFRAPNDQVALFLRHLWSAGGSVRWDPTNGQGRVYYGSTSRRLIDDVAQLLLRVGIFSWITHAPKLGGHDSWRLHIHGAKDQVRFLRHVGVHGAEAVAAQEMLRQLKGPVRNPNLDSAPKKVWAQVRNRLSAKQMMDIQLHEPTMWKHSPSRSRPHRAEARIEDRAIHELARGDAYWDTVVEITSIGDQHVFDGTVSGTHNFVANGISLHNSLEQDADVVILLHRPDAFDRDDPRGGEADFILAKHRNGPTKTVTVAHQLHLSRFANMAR

Protein RecA = biological target: T7, Protein RecA (Mycobacterium tuberculosis, UniProt P9WHJ3); assay: Fluorescence Cell-Free Homogeneous Dose Retest to Identify Inhibitors of RecA-Intein Splicing Activity. [Related pubchem assays (depositor defined):AID2097, AID2223, AID489010, AID492950]; assay type: functional
T7 sequence (P9WHJ3 whole entry): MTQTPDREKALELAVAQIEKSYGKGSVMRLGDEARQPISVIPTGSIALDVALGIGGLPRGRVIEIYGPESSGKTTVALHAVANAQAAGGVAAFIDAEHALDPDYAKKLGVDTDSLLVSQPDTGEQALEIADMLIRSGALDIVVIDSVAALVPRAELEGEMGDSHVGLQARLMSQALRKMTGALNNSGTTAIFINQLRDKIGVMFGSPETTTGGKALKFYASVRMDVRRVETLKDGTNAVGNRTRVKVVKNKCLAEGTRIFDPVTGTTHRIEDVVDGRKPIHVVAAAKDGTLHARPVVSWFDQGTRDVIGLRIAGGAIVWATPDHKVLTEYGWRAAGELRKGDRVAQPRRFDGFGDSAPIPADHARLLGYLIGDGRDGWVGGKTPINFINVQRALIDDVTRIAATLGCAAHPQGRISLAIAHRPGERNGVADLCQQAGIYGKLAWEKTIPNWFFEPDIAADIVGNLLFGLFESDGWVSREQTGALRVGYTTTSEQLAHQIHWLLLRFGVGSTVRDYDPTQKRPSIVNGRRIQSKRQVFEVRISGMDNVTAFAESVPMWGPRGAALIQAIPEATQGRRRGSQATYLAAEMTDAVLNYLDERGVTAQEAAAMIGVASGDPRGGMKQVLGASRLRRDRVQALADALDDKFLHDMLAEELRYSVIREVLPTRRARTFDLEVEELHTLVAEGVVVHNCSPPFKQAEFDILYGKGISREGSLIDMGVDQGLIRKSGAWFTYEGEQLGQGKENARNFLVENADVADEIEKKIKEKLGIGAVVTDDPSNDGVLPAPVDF

[24] = biological target: Photoreceptor-specific nuclear receptor (Homo sapiens, UniProt Q9Y5X4); assay type: functional, cell-based;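 further: CHO-S cells with Gal4-NCOR and VP16-NR2E3 two-hybrid luciferase reporter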
Photoreceptor-specific nuclear receptor, sequence (Q9Y5X4 whole entry, the tested form may be a part): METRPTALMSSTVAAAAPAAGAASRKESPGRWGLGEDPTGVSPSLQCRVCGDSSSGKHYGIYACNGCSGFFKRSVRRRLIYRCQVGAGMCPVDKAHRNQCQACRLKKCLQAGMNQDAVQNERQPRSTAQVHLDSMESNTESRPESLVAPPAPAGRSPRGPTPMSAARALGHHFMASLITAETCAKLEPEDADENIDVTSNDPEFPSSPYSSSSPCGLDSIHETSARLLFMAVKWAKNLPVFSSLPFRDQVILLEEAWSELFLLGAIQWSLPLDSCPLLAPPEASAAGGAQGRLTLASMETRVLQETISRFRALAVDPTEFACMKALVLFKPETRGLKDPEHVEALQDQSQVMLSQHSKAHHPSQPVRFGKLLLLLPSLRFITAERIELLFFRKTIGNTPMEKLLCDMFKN

Coagulation factor XII = biological target: T8, Coagulation factor XII (Homo sapiens, UniProt P00748); assay: Factor XIIa Dose Response Confirmation from Single Well HTS. [Related pubchem assays (depositor defined):AID701]; assay type: functional
T8 sequence (P00748 whole entry): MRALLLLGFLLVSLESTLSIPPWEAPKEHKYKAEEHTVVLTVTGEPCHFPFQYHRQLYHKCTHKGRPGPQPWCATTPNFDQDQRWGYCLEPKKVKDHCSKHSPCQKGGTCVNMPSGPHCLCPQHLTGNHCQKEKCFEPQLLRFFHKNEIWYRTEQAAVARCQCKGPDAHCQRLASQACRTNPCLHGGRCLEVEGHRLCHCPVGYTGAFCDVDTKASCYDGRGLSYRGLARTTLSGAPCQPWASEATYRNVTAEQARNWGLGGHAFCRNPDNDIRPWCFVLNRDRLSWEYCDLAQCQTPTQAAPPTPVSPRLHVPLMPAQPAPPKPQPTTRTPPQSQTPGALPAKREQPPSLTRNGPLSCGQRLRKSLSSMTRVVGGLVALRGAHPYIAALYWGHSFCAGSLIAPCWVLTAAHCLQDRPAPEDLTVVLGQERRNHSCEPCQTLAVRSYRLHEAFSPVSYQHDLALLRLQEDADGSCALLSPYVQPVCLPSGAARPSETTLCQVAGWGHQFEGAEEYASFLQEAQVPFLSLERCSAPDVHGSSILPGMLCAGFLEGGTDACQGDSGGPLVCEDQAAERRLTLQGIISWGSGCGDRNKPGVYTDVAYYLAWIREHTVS

Integrin alpha-L, sequence (P24063 whole entry): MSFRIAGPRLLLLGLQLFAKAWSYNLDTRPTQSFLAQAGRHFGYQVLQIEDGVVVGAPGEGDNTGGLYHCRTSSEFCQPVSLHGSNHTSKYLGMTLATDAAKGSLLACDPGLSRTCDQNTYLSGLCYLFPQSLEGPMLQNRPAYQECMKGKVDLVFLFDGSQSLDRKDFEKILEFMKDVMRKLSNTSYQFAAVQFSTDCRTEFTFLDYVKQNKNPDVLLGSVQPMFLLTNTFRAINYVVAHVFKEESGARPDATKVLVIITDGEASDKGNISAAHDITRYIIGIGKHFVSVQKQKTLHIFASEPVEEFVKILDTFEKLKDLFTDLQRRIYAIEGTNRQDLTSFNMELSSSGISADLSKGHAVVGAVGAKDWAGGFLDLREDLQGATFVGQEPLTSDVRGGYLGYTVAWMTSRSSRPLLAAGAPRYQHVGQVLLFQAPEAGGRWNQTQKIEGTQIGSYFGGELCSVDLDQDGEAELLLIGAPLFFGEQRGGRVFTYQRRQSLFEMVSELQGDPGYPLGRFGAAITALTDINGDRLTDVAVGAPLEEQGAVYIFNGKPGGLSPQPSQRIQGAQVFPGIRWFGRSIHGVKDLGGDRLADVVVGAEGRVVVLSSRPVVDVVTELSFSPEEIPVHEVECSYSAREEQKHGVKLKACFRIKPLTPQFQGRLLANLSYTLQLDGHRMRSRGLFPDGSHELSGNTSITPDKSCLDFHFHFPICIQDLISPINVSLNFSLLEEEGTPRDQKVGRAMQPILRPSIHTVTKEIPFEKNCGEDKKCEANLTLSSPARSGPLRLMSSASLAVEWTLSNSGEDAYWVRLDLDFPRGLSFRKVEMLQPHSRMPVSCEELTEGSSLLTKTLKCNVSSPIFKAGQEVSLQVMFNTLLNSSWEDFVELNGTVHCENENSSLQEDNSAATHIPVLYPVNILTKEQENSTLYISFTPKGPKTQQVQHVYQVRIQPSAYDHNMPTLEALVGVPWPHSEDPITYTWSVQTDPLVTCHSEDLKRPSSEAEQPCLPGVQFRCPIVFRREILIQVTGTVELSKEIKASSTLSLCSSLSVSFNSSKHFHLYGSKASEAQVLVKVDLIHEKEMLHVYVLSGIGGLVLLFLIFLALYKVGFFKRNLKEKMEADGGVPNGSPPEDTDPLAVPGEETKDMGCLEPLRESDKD

Structure (SMILES): COCc1c(C(=O)Nc2cccc(S(=O)(=O)N3CCCCC3)c2)oc2ccccc12
- EC50 (Integrin alpha-L): 24.7 µM (inactive)
- EC50 (T-cell): 50.8 µM (inactive)
- AC50 [1]: 9.63 µM (active)
- AC50 [2]: 26.4 µM (active)

Structure (SMILES): CC(C)C(NC(=O)CN1C(=O)c2ccccc2S1(=O)=O)C(C)C
- IC50 [3]: > 100 µM (inactive)
- IC50 [4]: > 100 µM (not active)

Structure (SMILES): Cc1cc(C)cc(OCC(=O)NNC(=O)c2cc(C)n[nH]2)c1
- EC50 [5]: > 100 µM (inactive)
- EC50 [6]: 12.7 µM (active)
- IC50 [7]: > 100 µM (inactive)
- EC50 [8]: 16.1 µM (active)

Structure (SMILES): CCN1C(c2ccccc2)=C(c2ccccc2)S/C1=C\C=C1/SC(=S)N(C)C1=O
- EC50 [9]: 7.44 µM (active)

Structure (SMILES): Cc1cc2n(n1)C(c1ccc(N(C)C)cc1)Nc1ccccc1-2 (stereo not given)
- IC50 [10]: 48.3 µM (active)
- IC50 [11]: > 100 µM (inactive)

Structure (SMILES): COc1ccc(C(=O)c2c(C(F)(F)F)oc3c2C(=O)c2ccccc2C3=O)cc1OC
- EC50 [12]: > 120 µM (not active)
- EC50 [13]: 0.514 µM (active)
- EC50 [14]: > 120 µM (not active)
- EC50 [15]: 8.35 µM (active)
- EC50 (Streptokinase A): > 150 µM (not active)
- EC50 [16]: 0.884 µM (active)
- CC50 [17]: 6.08 µM (active)
- EC50 [18]: 2.34 µM (active)
- EC50 [19]: 5.27 µM (active)
- EC50 [20]: 2.23 µM (active)
- EC50 (Streptococcus): 8.91 µM (active)
- IC50 [21]: > 80 µM (inactive)
- CC50 [22]: 5.78 µM (active)
- AC50 [23]: 4.74 µM (active)
- EC50 (Protein RecA): 2.02 µM (active)
- IC50 [24]: 1.99 µM (active)

Structure (SMILES): O=C1N=C(c2ccccc2)S/C1=C\c1cccs1
- IC50 (Coagulation factor XII): > 50 µM (inactive)

Reference: ChEMBL document CHEMBL1201862, “PubChem BioAssay data set” (2004)
